Laboratory results as given in patent US20070078085A1, “Methods and compositions for the utilization and targeting of osteomimicry” (priority 2004, published 2007).

Key:
Assay type in all cases: cell-based, human
OC mRNA = test: Semi-quantitative RT-PCR of endogenous OC mRNA; settings: LNCaP and C4-2B cells (data not shown)
Experimental: (§1) Reverse Transcription-Polymerase Chain Reaction (RT-PCR) Analysis. Total RNA was isolated from confluent monolayers of cells using RNAZol B (Teltest Inc., Friendswood, Tex.). Five μg of total RNA was used as template and 0.15 μg of random hexanucleotide primers were added for reverse transcription and amplification in a reaction volume of 20 μl, according to the manufacturer's instruction (Invitrogen, Carlsbad, Calif.). After RT reaction, 3-5 μl of the 1st-strand cDNA was used for PCR with a PTC-100 programmable Thermal Controller (MJ Research Inc.). The oligonucleotide primer sets used for PCR analysis of cDNA are: hOC, 5′-[…]-3′ (forward) and 5′-[…]-3′ (reverse); hBSP, 5′-[…]-3′ (forward) and 5′-[…]-3′ (reverse); and glyceraldehyde phosphate dehydrogenase (GAPDH), 5′-[…]-3′ (forward) and 5′-[…]-3′ (reverse), respectively. The thermal profile for hOC amplification is 30 cycles starting with denaturation 1 min at 94° C., followed by 1 min of annealing at 55° C. and 1 min of extension at 72° C. For hBSP amplification the thermal profile is 35 cycles starting with denaturation 1 min at 94° C., followed by 30 s of annealing at 48° C. and 40 s of extension at 72° C. The program for GAPDH amplification is 25 cycles starting with denaturation 30 s at 94° C., followed by 30 s of annealing at 60° C. and 1 min of extension at 72° C. The RT-PCR products were analyzed by 1.2% agarose gel electrophoresis. Quantity one-4.1.1 Gel Doc gel documentation software (Bio-Rad) or NIH image were used for quantification of hOC and hBSP mRNA expression normalized by GAPDH mRNA expression.

BSP mRNA = test: Semi-quantitative RT-PCR of endogenous BSP mRNA; settings: LNCaP and C4-2B cells (data not shown)
Experimental: as §1

hOC promoter = test: hOC promoter-luciferase reporter activity in transfected cells; settings: C4-2B cells
Description: Plasmid Construction. Genomic DNA was used in the PCR of the 0.8-kb hOC promoter inserting KpnI and XhoI sites, subsequently cloned into pGL3-Basic-luciferase reporter vector (Promega, Madison, Wis.) as described before (9). The deletion constructs, ΔA [374 bp upstream of AP1/VDRE (AV) element], ΔTst-1 (POU-factor Tst-1/Oct-6 binding site), ΔCRE (cAMP-responsive element) and ΔIRF-1 (interferon regulatory factor-i binding site) in hOC promoter/pGL3 were generated by recombinant PCR technique. The point mutation plasmids in CRE (from -643 to -636 in hOC promoter, 5′-[…]-3′) were constructed with a QuikChange Site-Directed Mutagenesis Kit (Stratagene). The mutation constructs (see below) are one-point substitution mutants, Mut1 (-642 G→T), Mut2 (-641 A→C), Mut3 (-640 C→A), Mut4 (-639 C→A) and Mut5 (-638 T→G), a two-point substitution mutant, Mut6 (-640 and -639 CC→AA), and a two-point deletion construct, Mut7 (-640 and -639 CC→XX). The 1.5-kb hBSP promoter construct prepared in the pGL3-luciferase reporter vector has been described previously (36). The single deletion constructs ΔCRE1 (-79 to -72) and ΔCRE2 (-674 to -667), and a double deletion construct ΔCRE2/CRE1 in the hBSP promoter/pGL3-luciferase plasmid were generated by recombinant PCR technique. All plasmid constructs were confirmed by DNA sequencing.
Transfection and Luciferase Activity Assay. Cells were trypsinized and seeded at a density of 1.5×10^5 cells/well (LNCaP, C4-2B, DU145 and ARCaP) and 1.0×10^5 cells/well (PC3 and MG63) in 12-well plates 24 h before transfection. Plasmid DNAs were introduced into cells by complexing with a commercial reagent DOTAP (Roche Molecular Biochemicals) according to the manufacturer's protocol. Each transfection reaction contained 1.25 μg of tested DNA constructs and 0.25 μg of the transfection efficiency control CMV promoter-driven β-galactosidase plasmid DNA. After 6 h transfection, DNA-liposome mixtures were replaced by fresh T-medium or CM. Tansfected cells were harvested and lysed in 1× Reporter Lysis buffer (Promega) after 36 h additional incubation. Cell lysates were vortexed for 15 s and spun for 10 min. For luciferase activity assay, 20 μl of the lysate supernatant was mixed with 100 μl of the luciferase substrate (Promega) and detected by a luminometer (Monolight 3010, luminometer PharMingen, San Diego, Calif.). For β-galactosidase activity assay, 100 μl of the supernatant was mixed with 100 μl of 2×β-galactosidase substrate [200 mM sodium phosphate buffer, pH 7.3, 2 mM MgCl2, 100 mM β-mercaptoethanol and 1.33 mg/ml o-nitrophenyl-β-D-galactopyranoside (ONPG)], and incubated at 37° C. for 30 min. β-galactosidase activity was detected by Microplate spectrophotometer (Molecular Devices Corp., Sunnyvale, Calif.) at 405 nm wavelength. Data were presented as normalized luciferase activity (means±standard deviations), defined as luciferase activity normalized to internal control β-galactosidase activity for transfection efficiency. All studies were performed in three independent experiments with duplicate assays.

hBSP promoter = test: hBSP promoter-luciferase reporter activity in transfected cells; settings: C4-2B cells; H-89 10^−8 to 10^−6 M for 2 h, then FSK 10^−6 M 16 h; concentration-dependent
Description: Plasmid Construction. Genomic DNA was used in the PCR of the 0.8-kb hOC promoter inserting KpnI and XhoI sites, subsequently cloned into pGL3-Basic-luciferase reporter vector (Promega, Madison, Wis.) as described before (9). The deletion constructs, ΔA [374 bp upstream of AP1/VDRE (AV) element], ΔTst-1 (POU-factor Tst-1/Oct-6 binding site), ΔCRE (cAMP-responsive element) and ΔIRF-1 (interferon regulatory factor-i binding site) in hOC promoter/pGL3 were generated by recombinant PCR technique. The point mutation plasmids in CRE (from -643 to -636 in hOC promoter, 5′-[…]-3′) were constructed with a QuikChange Site-Directed Mutagenesis Kit (Stratagene). […]
Transfection and Luciferase Activity Assay. […] For luciferase activity assay, 20 μl of the lysate supernatant was mixed with 100 μl of the luciferase substrate (Promega) and detected by a luminometer (Monolight 3010, luminometer PharMingen, San Diego, Calif.). For β-galactosidase activity assay, 100 μl of the supernatant was mixed with 100 μl of 2×β-galactosidase substrate [200 mM sodium phosphate buffer, pH 7.3, 2 mM MgCl2, 100 mM β-mercaptoethanol and 1.33 mg/ml o-nitrophenyl-β-D-galactopyranoside (ONPG)], and incubated at 37° C. for 30 min. β-galactosidase activity was detected by Microplate spectrophotometer (Molecular Devices Corp., Sunnyvale, Calif.) at 405 nm wavelength. […]

## O=S(=O)(NCCNCC=Cc1ccc(Br)cc1)c1cccc2cnccc12 [H-89, N-[2-(p-bromocinnamylamino)ethyl]-5-isoquinolinesulfonamide]
OC mRNA
  induction of endogenous OC mRNA expression by ARCaP CM or FSK: inhibited
BSP mRNA
  induction of endogenous BSP mRNA expression by ARCaP CM or FSK: inhibited
hOC promoter; H-89 10^−6 M 2 h, then ARCaP CM 15 μg/ml 16 h
  ARCaP CM-mediated activation of hOC promoter activity: inhibited
hOC promoter; H-89 10^−6 M 2 h, then PMA 10^−6 M 16 h
  PMA-induced hOC promoter activation: not blocked
hOC promoter; H-89 10^−6 M 2 h, then db cAMP 10^−3 M 16 h
  db cAMP-mediated activation of hOC promoter activity: inhibited
hOC promoter; H-89 10^−6 M, CM harvested from C4-2B, DU145, PC3 and MG63 cell lines
  CM-induced hOC promoter activity: nearly abolished
hOC promoter; H-89 10^−8 to 10^−6 M for 2 h, then FSK 10^−6 M 16 h, concentration-dependent
  FSK-stimulated hOC promoter activity: inhibited
hBSP promoter
  FSK-stimulated hBSP promoter activity: inhibited
